Experimental data from US12601743B2, “Methods for treating drug resistant cancers” (The Regents of the University of California, priority 2017, dated 2026).
“Also recorded” adds a separate entry of the source.

Legend:
[1] = system: YAP/TAZ expression in GBM cells; assay: YAP/TAZ expression after PAK4 inhibition (immunoblot); type: cell-based, human; settings: FIG. 3H, FIG. 14C; U87MG, LN229
Protocol: Chemicals. Verteporfin (YAP inhibitor) was purchased from Sigma and used at the concentration of 0.5-10 μM for 24 hours. PF-03758309 (PAK4 inhibitor) was purchased from Chemietek and used at the concentration of 50 nM-1000 nM for 24 hours.
Immunoblotting. Proteins were extracted in RIPA buffer and quantified using the Pierce BCA kit (Thermo Fisher). 10-30 μg of protein was boiled in NuPage buffer (Thermo Fisher) and loaded onto a denaturing SDS-polyacrylamide gel (10%), transferred to PVDF membranes and blotted with anti-mouse or -rabbit HRP-conjugated secondary antibodies (Bio-Rad). The following antibodies were used for immunoblotting: β3 (Cell Signaling), Glut3 (Santa Cruz Biotechnology), YAP (Santa Cruz) YAP-XP (cell signaling), TAZ (Cell Signaling), PAK4 and pPAK4 (Cell Signaling), and Vinculin and β-actin (Sigma-Aldrich) as loading controls.

[2] = system: GBM14, GBM64 and GBM85 GSCs; assay: GSC cell viability (CELLTITER-GLO), Mayo Clinic models predicted Glut3 addicted; type: cell-based, human; settings: Classical or Proneural, Glut3 addicted signature, FIG. 17B
Protocol: (§1) Cell viability assay. U87MG, LN229, and LN18 cells were seeded at 1K cells per well in black 96-well plates in DMEM medium (no glucose) with 10% dialyzed FBS±glucose (0-4.5 g/L). Cell viability was determined by Alamar Blue dye (Life Technologies) according to manufacturer's instructions. For GSCs, cells were seeded at 10K cells per well in white 96-well low attachment plates in GSC medium±glucose (0-4.5 g/L). Viable cell numbers were evaluated using a CELLTITER-GLO™ assay kit (Promega). Each condition consisted of, at least, three replicate wells and data were expressed as relative luciferase units or as the percentage of survival of control cells.

GBM150 and GBM59 GSCs = assay: GSC cell viability (CELLTITER-GLO), Mayo Clinic models with Glut3 non-addicted signature; type: cell-based, human; settings: mesenchymal, FIG. 17B
Protocol: as §1

[3] = system: Ge738, GBM6, Ge970.2 and Ge885 GSCs; assay: GSC cell viability (CELLTITER-GLO), GSC with low β3/Glut3 expression; type: cell-based, human; settings: GSC with low β3/Glut3 expression (Ge738, GBM6, Ge970.2, Ge885); FIG. 5D, 5H
Protocol: as §1

GBM26 and GBM12 GSCs = assay: GSC cell viability (CELLTITER-GLO), Mayo Clinic β3/Glut3-low models; type: cell-based, human; settings: FIG. 17A-B
Protocol: as §1

Ge479 orthotopic tumors = assay: Orthotopic brain tumor xenograft survival, Ge479; type: in vivo, mice; settings: Ge479 (Glut3 addicted); systemic treatment; FIG. 21
Protocol: Orthotopic brain tumor xenografts. Intracranial transplantation of U87MG or GSC (Ge518 and Ge479) into 6-8-week-old nu/nu nude immunocompromised mice (Charles River Labs) was performed in accordance with the UCSD Institutional Animal Care and Use Committee. U87MG cells bearing β3, Glut3 shRNA or shβ3 ectopically expressing Glut3 as well as shRNA control (15 mice per group) were orthotopically transplanted following washing and resuspension in PBS. Ge479 and Ge518 were orthotopically transplanted following washing and resuspension in DMEM/F12. Mice were treated with vehicle (PBS) or cilengitide (10 mg kg 1 or 30 mg kg 1; 8 mice per group) five days per week. Briefly, with a stereotaxic frame (Stoelting Co.), a small burr hole was made in the skull 2 mm anterior and 2 mm lateral to the bregma. A 31-gauge Hamilton needle/syringe was inserted 3 mm, and 0.25 μl/minute was dispensed (10^5 tumor cells in 2 μl media). A total of 1×10^5 and 3×10^5 cells in 2 μl was injected respectively for U87MG cells and GSCs respectively.

glioblastoma = settings: GBM patients; phase III CENTRIC, phase II CORE (Stupp et al., 2014); cited from earlier work

| SMILES | YAP/TAZ expression [1] | sensitivity (cell viability) [2] | sensitivity (cell viability) (GBM150 and GBM59 GSCs) | effect on cell viability [3] | effect on cell viability (GBM26 and GBM12 GSCs) | survival of mice bearing orthotopic tumors (Ge479 orthotopic tumors) | overall survival in clinical trials (glioblastoma) |
| --- | --- | --- | --- | --- | --- | --- | --- |
| Cc1nc(Nc2n[nH]c3c2CN(C(=O)N[C@H](CN(C)C)c2ccccc2)C3(C)C)c2sccc2n1 [PF-03758309] | decrease of YAP/TAZ expression |  |  |  |  |  |  |
| CC(C)[C@H]1C(=O)N[C@@H](CCCN=C(N)N)C(=O)NCC(=O)N[C@@H](CC(=O)O)C(=O)N[C@H](Cc2ccccc2)C(=O)N1C [cilengitide, 2-[(2S,5R,8S,11S)-5-benzyl-11-{3-[(diaminomethylidene)amino]propyl}-7-methyl-3,6,9,12,15-pentaoxo-8-(propan-2-yl)-1,4,7,10,13-pentaazacyclopentadecan-2-yl]acetic acid] |  | largely sensitive; also recorded: sensitivity to integrin blockade | largely resistant; also recorded: not affected | moderate enhancement of viability | no effect or a moderate enhancement of viability | dramatically prolongs the survival | failed to meet overall survival endpoints; also recorded: failed to produce a significant overall survival benefit |
